Assay [1] concerns ATP-binding aptamer incorporated DNA scaffold (DNA, duplex) ACCTGGGGGAGTATTGCGGAGGAAGGT/ACCTTCCTCCGCAATACTCCCCCAGGT
Put plainly: Dox fluorescence quenching titration. The note with it: aqueous solution; Dox 1 µg/mL; maximum quenching at Dox/DNA mass ratio ~1:9.8.

Assay [2] has the same test system. In words: Dox fluorescence recovery (release of intercalated Dox). The note with it: indirect; Dox/DNA mass ratio 1:10; recovery ~20, ~36, ~56% at 4, 8, 20 mM ATP.

For the compound `COc1cccc2c1C(=O)c1c(O)c3c(c(O)c1C2=O)C[C@@](O)(C(=O)CO)C[C@@H]3O[C@H]1C[C@H](N)[C@H](O)[C@H](C)O1`, the binding result in assay [1] is listed as “yes”.

Consider `Nc1ncnc2c1ncn2[C@@H]1O[C@H](COP(=O)(O)OP(=O)(O)OP(=O)(O)O)[C@@H](O)[C@H]1O`, for which the binding result in assay [2] is recorded as “yes”.

The record behind these values is article PMC6165277 (2018).
